This note sets out measurements from US10322187B2, “Reduced toxicity molecular conjugates of anti-fungal agents” (Lehigh University, priority 2015, dated 2019).

In brackets after ≈: the same amount, converted by molar mass. Where two headings read alike, the source gives them in different places.

The test system of one data set is C. glabrata. Briefly: Antifungal activities, MIC/MFC. Type of data set: cell-based. The note with it: C. glabrata; for MIC: Table 2, 2nd value in brackets, read-out: minimum inhibitory concentration (MIC). How it is done:
(§1) A similar sequence of reactions was carried out using lysine dicholamide in place of cholic acid afforded VJ-1147 of Table 2. To assess the antifungal properties of the diwalled VJ-1138 (Table 2) and 2a of Table 3, their in vitro activities were examined against four clinically relevant microbes, i.e., C. albicans, C. glabrata, C. neoformans, and C. gatti (Table 4).
(§2) Minimum inhibitory concentrations (MIC) and minimum fungicidal concentrations (MFC) are the lowest concentrations that are required for completely inhibiting growth, and killing at least 99% of the fungi, respectively.
(§3) The above molecules were tested for antifungal activity. Minimum inhibitory concentrations (MIC) and minimum fungicidal concentrations (MFC) are the lowest concentrations that are required for completely inhibiting growth, and killing at least 99% of the fungi, respectively. As is apparent from Table 4 below, there is a general trend; i.e., increased antifungal activity is observed as the length of the hydrocarbon chain that separates the facial amphiphile from the Amphotericin B moiety is decreased.

A further data set deals with C. neoformans. The data set can be described thus: Antifungal activities, MIC/MFC. The note with it: C. neoformans; for MIC: Table 2, 3rd value in brackets, read-out: minimum inhibitory concentration (MIC). Type of data set: cell-based. How it is done: as §1, §2, §3
The test system of another data set is C. albicans. The data set can be described thus: Antifungal activities, MIC/MFC. The class given is cell-based. The note with it: C. albicans; for MIC: Table 2, 1st value in brackets, read-out: minimum inhibitory concentration (MIC). How it is done:
as §1, §2, §3

The next data set deals with C. gatti. The data set can be described thus: Antifungal activities, MIC/MFC. The note with it: C. gatti; for MIC: Table 2, 4th value in brackets, read-out: minimum inhibitory concentration (MIC). Type of data set: cell-based. How it is done: as §1, §2, §3
The test system of a further data set is Cryptococcus neoformans. The data set can be described thus: Cryptococcosis mouse model, brain and lung tissue burden. Type of data set: in vivo, mice. The note with it: after intravenous administration. How it is done: Cryptococcosis mice are infected via tail vein injection of 5×10^4 C. neoformans cells. Inocula are verified by quantitative culture. Animals are identified by temporary ink marking, assigned to groups of 10 mice. Test compounds will be dosed starting on the day of infection. Initial studies will employ i.v., i.p. or oral (gavage) dosing (depending on the compound and the vehicle). Antifungal compounds are given for a period of 7 days. […] On day 8, the lung and brain are evaluated by quantitative culture per gram of tissue, by weighing organs and culturing serially diluted homogenates. These tissue burden studies permit detection of drug efficacy that may not be evident by using a survival endpoint.
The mice were then sacrificed 7 days later for quantitative culture of brain and lung, with cryptococcal cells per gram tissue being expressed as logarithmic values (log 10). Mean values for each group were compared using the t-test.

For the next data set, the system named is sheep red blood cells. The data set can be described thus: Hemolysis measurements, release of hemoglobin. The class given is cell-based. The settings on record: up to concentrations of 500 μM; 37° C. in PBS, pH 7.4. The method, then:
Sheep Red Blood Cells, 10%, in saline (Innovative Research, Novi, Mich.), were diluted in saline (pH 7.4) to a concentration of 4%, which corresponds to 4×10^7 cells/mL. All measurements were carried out in duplicate. Solutions of Amphotericin B (Sigma-Aldrich) were prepared by adding 10 μL of a DMSO solution containing a given concentration of the antibiotic (i.e., ranging from 0.2 mM to 50 mM) to 490 μL of PBS. After the resulting solution was vortex mixed for 30 seconds (s) it was incubated at 37° C. for 15 min. The resulting solution of antibiotic (500 μL) was then mixed with 500 μL of the 4% erythrocyte dispersion at 37° C. in a 1 mL plastic centrifuge vial to give a dispersion that was vortex mixed at slow rate for 5 s. After 1 h of incubation at 37° C., all samples were centrifuged (1500 g, Eppendorf centrifuge 5415C, 5000 rpm) at rt for 5 min. The supernatant (˜0.7 mL) from each plastic vial was carefully separated from sediment using a disposable glass pipette and quickly transferred to test tube. A volume of 50 μL of this supernatant was then transferred to a UV cell containing 500 μL of PBS that was maintained at 37° C. The UV spectrum was then scanned (450-650 nm) and the absorbance at 575 nm used to determine the extent of hemolysis. The extent of 0% and 100% of hemolysis was obtained from A575 values of experiments that were run in absence of AmphB (control, [A575,]o) and in presence, 100 μM AmphB ([A575]max), respectively.

As for `CC1OC(O[C@H]2/C=C/C=C/C=C/C=C/C=C/C=C/C=C/[C@H](C)[C@@H](O)[C@@H](C)[C@H](C)OC(=O)C[C@H](O)C[C@H](O)CC[C@@H](O)[C@H](O)C[C@H](O)C[C@]3(O)C[C@H](O)[C@@H](C(=O)NCCCCNC(=O)C(CCCCNC(=O)CC[C@@H](C)C4CCC5C6C(O)CC7CC(OC(=O)NCCN(C)C)CCC7(C)C6CC(O)C54C)NC(=O)CC[C@@H](C)C4CCC5C6C(O)CC7CC(OC(=O)NCCN(C)C)CCC7(C)C6CC(O)C54C)[C@H](C2)O3)C(O)C(N)C1O` (stereo partly drawn) [YM-19], the MIC is listed as 32 µM (≈ 68.2 µg/mL) in the data set on C. glabrata, 2 µM (≈ 4.26 µg/mL) in the data set with C. neoformans, 4 µM (≈ 8.53 µg/mL) with C. albicans and 2 µM (≈ 4.26 µg/mL) in the data set on C. gatti.
`CC1OC(O[C@H]2/C=C/C=C/C=C/C=C/C=C/C=C/C=C/[C@H](C)[C@@H](O)[C@@H](C)[C@H](C)OC(=O)C[C@H](O)C[C@H](O)CC[C@@H](O)[C@H](O)C[C@H](O)C[C@]3(O)C[C@H](O)[C@@H](C(=O)NCCCCNC(=O)C(CCCCNC(=O)CC[C@@H](C)C4CCC5C6C(O)CC7CC(OC(=O)NCCCCN)CCC7(C)C6CC(O)C54C)NC(=O)CC[C@@H](C)C4CCC5C6C(O)CC7CC(OC(=O)NCCCCN)CCC7(C)C6CC(O)C54C)[C@H](C2)O3)C(O)C(N)C1O` (stereo partly drawn) [YM-18]: the MIC is listed as 16 µM (≈ 34.1 µg/mL) in the data set on C. glabrata, 2 µM (≈ 4.26 µg/mL) in the data set on C. neoformans, 2 µM (≈ 4.26 µg/mL) in the data set with C. albicans and 2 µM (≈ 4.26 µg/mL) with C. gatti.
Turning to `CC1OC(O[C@H]2/C=C/C=C/C=C/C=C/C=C/C=C/C=C/[C@H](C)[C@@H](O)[C@@H](C)[C@H](C)OC(=O)C[C@H](O)C[C@H](O)CC[C@@H](O)[C@H](O)C[C@H](O)C[C@]3(O)C[C@H](O)[C@@H](C(=O)NCCCCNC(=O)C(CCCCNC(=O)CC[C@@H](C)C4CCC5C6C(O)CC7CC(OC(=O)NCC(O)C(O)C(O)C(O)CO)CCC7(C)C6CC(O)C54C)NC(=O)CC[C@@H](C)C4CCC5C6C(O)CC7CC(OC(=O)NCC(O)C(O)C(O)C(O)CO)CCC7(C)C6CC(O)C54C)[C@H](C2)O3)C(O)C(N)C1O` (stereo partly drawn) [YM-13], the MIC in the data set with C. glabrata stood at 8 µM (≈ 18.5 µg/mL); in the data set with C. neoformans, 2 µM (≈ 4.64 µg/mL); with C. albicans, 8 µM (≈ 18.5 µg/mL); with C. gatti, 4 µM (≈ 9.27 µg/mL).
For `CC1OC(O[C@H]2/C=C/C=C/C=C/C=C/C=C/C=C/C=C/[C@H](C)[C@@H](O)[C@@H](C)[C@H](C)OC(=O)C[C@H](O)C[C@H](O)CC[C@@H](O)[C@H](O)C[C@H](O)C[C@]3(O)C[C@H](O)[C@@H](C(=O)NCCSSCCC(=O)N(CCCCNC(=O)C(CCCCNC(=O)CC[C@@H](C)C4CCC5C6C(OS(=O)(=O)[O-])CC7CC(OS(=O)(=O)[O-])CCC7(C)C6CC(OS(=O)(=O)[O-])C54C)NC(=O)CC[C@@H](C)C4CCC5C6C(OS(=O)(=O)[O-])CC7CC(OS(=O)(=O)[O-])CCC7(C)C6CC(OS(=O)(=O)[O-])C54C)CCCNC(=O)C(CCCCNC(=O)CC[C@@H](C)C4CCC5C6C(OS(=O)(=O)[O-])CC7CC(OS(=O)(=O)[O-])CCC7(C)C6CC(OS(=O)(=O)[O-])C54C)NC(=O)CC[C@@H](C)C4CCC5C6C(OS(=O)(=O)[O-])CC7CC(OS(=O)(=O)[O-])CCC7(C)C6CC(OS(=O)(=O)[O-])C54C)[C@H](C2)O3)C(O)C(N)C1O.[Na+].[Na+].[Na+].[Na+].[Na+].[Na+].[Na+].[Na+].[Na+].[Na+].[Na+].[Na+]` (stereo partly drawn) [compound 10], the “minimum inhibitory concentration (MIC in μM) relative to AmphB” value in the data set with C. glabrata (2nd value in brackets), in the data set with C. neoformans (3rd value in brackets), in the data set with C. albicans (1st value in brackets) and in the data set on C. gatti (4th value in brackets) was over 426 µM in each case. In the data set on Cryptococcus neoformans, the “activity in brain and lung tissue” value was “negligible activity”.
As to `CC1OC(O[C@H]2/C=C/C=C/C=C/C=C/C=C/C=C/C=C/[C@H](C)[C@@H](O)[C@@H](C)[C@H](C)OC(=O)C[C@H](O)C[C@H](O)CC[C@@H](O)[C@H](O)C[C@H](O)C[C@]3(O)C[C@H](O)[C@@H](C(=O)NCCCCCCNC(=O)CC[C@@H](C)C4CCC5C6C(O)CC7CC(O)CCC7(C)C6CC(O)C54C)[C@H](C2)O3)C(O)C(N)C1O` (stereo partly drawn) [YYM-72], the hemolytic activity result with sheep red blood cells is “negligible hemolytic activity”.
`CC1OC(O[C@H]2/C=C/C=C/C=C/C=C/C=C/C=C/C=C/[C@H](C)[C@@H](O)[C@@H](C)[C@H](C)OC(=O)C[C@H](O)C[C@H](O)CC[C@@H](O)[C@H](O)C[C@H](O)C[C@]3(O)C[C@H](O)[C@@H](C(=O)NCCCCNC(=O)C(CCCCNC(=O)CC[C@@H](C)C4CCC5C6C(O)CC7CC(O)CCC7(C)C6CC(O)C54C)NC(=O)CC[C@@H](C)C4CCC5C6C(O)CC7CC(O)CCC7(C)C6CC(O)C54C)[C@H](C2)O3)C(O)C(N)C1O` (stereo partly drawn) [YM-15]: the MIC in the data set on C. glabrata (Nakaseomyces glabratus) was over 16 µM; in the data set with C. neoformans (Cryptococcus neoformans), over 16 µM; in the data set with C. albicans (Candida albicans), over 16 µM; with C. gatti it was 4 µM (≈ 7.61 µg/mL).
In the case of `CC1OC(O[C@H]2/C=C/C=C/C=C/C=C/C=C/C=C/C=C/[C@H](C)[C@@H](O)[C@@H](C)[C@H](C)OC(=O)C[C@H](O)C[C@H](O)CC[C@@H](O)[C@H](O)C[C@H](O)C[C@]3(O)C[C@H](O)[C@@H](C(=O)NCCOCCOCCC(=O)N(CCCCNC(=O)CC[C@@H](C)C4CCC5C6C(O)CC7CC(O)CCC7(C)C6CC(O)C54C)CCCNC(=O)CC[C@@H](C)C4CCC5C6C(O)CC7CC(O)CCC7(C)C6CC(O)C54C)[C@H](C2)O3)C(O)C(N)C1O` (stereo partly drawn) [YM-42], the MIC in the data set on C. glabrata (Nakaseomyces glabratus), with C. neoformans (Cryptococcus neoformans), in the data set with C. albicans (Candida albicans) and in the data set with C. gatti was over 16 µM throughout.
On to `CC1OC(O[C@H]2/C=C/C=C/C=C/C=C/C=C/C=C/C=C/[C@H](C)[C@@H](O)[C@@H](C)[C@H](C)OC(=O)C[C@H](O)C[C@H](O)CC[C@@H](O)[C@H](O)C[C@H](O)C[C@]3(O)C[C@H](O)[C@@H](C(=O)NCCCCCCCC(=O)N(CCCCNC(=O)CC[C@@H](C)C4CCC5C6C(OC(=O)NCCCCN)CC7CC(OC(=O)NCCCCN)CCC7(C)C6CC(OC(=O)NCCCCN)C54C)CCCNC(=O)CC[C@@H](C)C4CCC5C6C(OC(=O)NCCCCN)CC7CC(OC(=O)NCCCCN)CCC7(C)C6CC(OC(=O)NCCCCN)C54C)[C@H](C2)O3)C(O)C(N)C1O` (stereo partly drawn) [VJ-1147], for which the MIC in the data set on C. glabrata worked out at 16 µM (≈ 42.5 µg/mL); in the data set with C. neoformans it was 8 µM (≈ 21.3 µg/mL); in the data set with C. albicans, 8 µM (≈ 21.3 µg/mL); with C. gatti, 8 µM (≈ 21.3 µg/mL).
